Experimental data from the supplement of paper PMC10307832.

Compound: N#CC1(c2ccc(NC(=O)c3cccnc3NCc3ccncc3)cc2)CCCC1 [Apatinib] + Cc1nc(NC(=O)N2CCC[C@H]2C(N)=O)sc1-c1ccnc(C(C)(C)C(F)(F)F)c1 [Alpelisib] (partner 2 µM)
Test: relative viability (nuclei count vs DMSO), 5 days (fraction); higher = more cells survive
Conditions: first compound 2.53 µM
In short: (§1)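 Relative viability is defined as nuclei in treated wells over nuclei in vehicle wells. Duplicate plates were run and medians reported. Lung cancer cell lines in 1536-well plates were dosed by pin tool one day after seeding, with one drug or with a fixed anchor-drug dose plus five library-drug doses (not always all listed) in √10 steps, and nuclei were counted after 5 days.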

Cell Line	relative viability
NCI-H2009	1.02
NCI-H2023	0.514
NCI-H2228	0.542
SK-LU-1	0.906
SK-MES-1	0.929
SW 1573	0.761
UMC-11	0.959

Same assay, conditions: first compound 8 µM

Cell Line	relative viability
201T	1.05
A549	0.65
A-427	1
ABC-1	1.1
BEN	0.727
CAL-12T	1.04
COR-L23	0.652
COR-L 105	0.731
Calu-6	0.73
EBC-1	0.404
EKVX	0.774
EMC-BAC-2	0.678
EPLC-272H	0.903
H3255	0.537
HARA	0.795
HCC-15	0.705
HCC-44	0.726
HCC-78	0.382

Cell Line	relative viability
HCC-366	0.265
HCC-827	0.469
HOP-62	0.713
IA-LM	0.337
LC-2-ad	0.652
NCI-H520	0.633
NCI-H661	0.597
NCI-H1299	0.929
NCI-H1563	0.804
NCI-H1703	0.17
NCI-H1792	0.553
NCI-H2009	0.893
NCI-H2023	0.559
NCI-H2228	0.527
SK-LU-1	0.692
SK-MES-1	0.658
SW 1573	0.595
UMC-11	0.885

Compound: CN(C)C(=N)NC(=N)N [Metformin] + Cc1cc(Nc2cc(N3CCN(C)CC3)nc(Sc3ccc(NC(=O)C4CC4)cc3)n2)n[nH]1 [Tozasertib] (partner 0.1 µM)
Test: as above
Conditions: first compound 10 µM
In short: as §1

Cell Line	relative viability
A-427	0.225
ABC-1	0.223
BEN	0.476
CAL-12T	0.437
COR-L23	0.183
COR-L 105	0.355
ChaGo-K-1	0.254
EKVX	0.337
EMC-BAC-2	0.29
EPLC-272H	0.292
H3255	0.603
HCC-44	0.971
HCC-78	0.637
HCC-366	0.142
HOP-62	0.283
NCI-H520	0.462
NCI-H522	0.68
NCI-H661	0.344
NCI-H1623	0.363
NCI-H1648	0.474
NCI-H1650	0.433
NCI-H2009	0.761
NCI-H2023	0.32
NCI-H2228	0.27
NCI-H2342	0.507
SK-LU-1	0.263
SK-MES-1	0.624
SW 900	0.476
SW 1573	0.153
UMC-11	0.211

Same assay, conditions: first compound 31.62 µM

Cell Line	relative viability
201T	0.93
A-427	0.255
ABC-1	0.163
BEN	0.494
CAL-12T	0.388
COR-L23	0.193
COR-L 105	0.336
ChaGo-K-1	0.281
EKVX	0.519
EMC-BAC-2	0.307
EPLC-272H	0.212
H3255	0.551
HARA	0.0842
HCC-15	0.489
HCC-44	0.931
HCC-78	0.571
HCC-366	0.141
HCC-827	0.422

Cell Line	relative viability
HOP-62	0.373
LC-2-ad	0.412
NCI-H520	0.496
NCI-H522	0.695
NCI-H661	0.373
NCI-H1623	0.413
NCI-H1648	0.656
NCI-H1650	0.443
NCI-H2009	0.856
NCI-H2023	0.413
NCI-H2228	0.31
NCI-H2342	0.447
SK-LU-1	0.311
SK-MES-1	0.693
SW 900	0.482
SW 1573	0.119
UMC-11	0.188

Same assay, conditions: first compound 100 µM

Cell Line	relative viability
201T	1.04
A-427	0.224
ABC-1	0.172
BEN	0.439
CAL-12T	0.408
COR-L23	0.187
COR-L 105	0.37
ChaGo-K-1	0.246
EKVX	0.443
EMC-BAC-2	0.317
EPLC-272H	0.288
H3255	0.615
HARA	0.14
HCC-15	0.395
HCC-44	1.06
HCC-78	0.487
HCC-366	0.111
HCC-827	0.442

Cell Line	relative viability
HOP-62	0.316
LC-2-ad	0.524
NCI-H520	0.463
NCI-H522	0.693
NCI-H661	0.377
NCI-H1623	0.452
NCI-H1648	0.859
NCI-H1650	0.496
NCI-H2009	0.802
NCI-H2023	0.479
NCI-H2228	0.241
NCI-H2342	0.618
SK-LU-1	0.272
SK-MES-1	0.75
SW 900	0.658
SW 1573	0.175
UMC-11	0.202

Same assay, conditions: first compound 316.23 µM

Cell Line	relative viability
201T	0.857
A-427	0.185
ABC-1	0.158
BEN	0.516
CAL-12T	0.363
COR-L23	0.164
COR-L 105	0.307
ChaGo-K-1	0.202
EMC-BAC-2	0.289
EPLC-272H	0.192
H3255	0.562
HARA	0.101
HCC-15	0.412
HCC-44	0.761
HCC-78	0.4
HCC-366	0.135
HCC-827	0.387
HOP-62	0.285
